Values joined by “and” are separate entries in the source; they are usually repeats but may differ in a detail not shown here. Identical values can stand only once. Active and inactive are the calls of the source.
Legend:
[1] = Luminescence Cell-Based Dose Response HTS to Identify Activators of Luciferase Translation or Activity in H4 […] Cells. [Related pubchem assays: 1829 (Project Summary), 1814 (Primary HTS)]; type: functional
H4 = experiment: Luminescence Cell-Based Dose Response HTS to Identify Activators of 5'UTR Stem-Loop Driven Prion Protein mRNA Translation in H4 Neuroglioblastoma Cells. [Related pubchem assays: 1829 (Project Summary), 1814 (Primary HTS)]; type: functional; settings: Homo sapiens
[2] = Luminescence Cell-Based Dose Confirmation HTS to Identify Activators of 5'UTR Stem-Loop Driven Alpha-Synuclein mRNA Translation in H4 Neuroglioblastoma Cells. [Related pubchem assays: 1829 (Project Summary), 1814 (Primary HTS)]; type: functional
[3] = molecular target: T1, Corticotropin-releasing factor receptor 2/Corticotropin-releasing factor-binding protein (Homo sapiens, UniProt P24387+Q13324); experiment: activators of CRF receptor 2 with binding protein – uHTS hits, confirmation (AID 602473); type: functional; settings: read-out: EC50_Mean
T1 sequence (Q13324 whole entry): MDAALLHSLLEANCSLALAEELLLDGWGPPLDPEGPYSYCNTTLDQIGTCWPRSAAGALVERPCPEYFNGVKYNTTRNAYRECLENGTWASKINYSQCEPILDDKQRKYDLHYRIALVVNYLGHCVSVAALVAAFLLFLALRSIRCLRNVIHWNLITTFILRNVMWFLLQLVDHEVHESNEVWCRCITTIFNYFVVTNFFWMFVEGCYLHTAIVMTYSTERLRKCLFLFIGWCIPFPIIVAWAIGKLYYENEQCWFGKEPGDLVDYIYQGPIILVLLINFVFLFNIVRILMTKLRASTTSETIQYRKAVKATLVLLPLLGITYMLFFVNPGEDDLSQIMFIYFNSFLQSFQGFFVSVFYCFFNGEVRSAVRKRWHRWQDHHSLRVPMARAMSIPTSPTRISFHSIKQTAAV
T1 sequence (P24387 whole entry): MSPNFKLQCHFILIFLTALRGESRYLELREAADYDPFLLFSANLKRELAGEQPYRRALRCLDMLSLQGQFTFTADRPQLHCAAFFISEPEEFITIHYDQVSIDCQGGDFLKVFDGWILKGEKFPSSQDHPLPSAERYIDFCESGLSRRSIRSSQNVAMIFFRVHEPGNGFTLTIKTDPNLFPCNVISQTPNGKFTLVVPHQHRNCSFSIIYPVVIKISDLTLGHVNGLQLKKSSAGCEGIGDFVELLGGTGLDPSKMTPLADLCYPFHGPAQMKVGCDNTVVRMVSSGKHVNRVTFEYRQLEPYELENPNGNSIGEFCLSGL

[4] = molecular target: T1, Corticotropin-releasing factor receptor 2/Corticotropin-releasing factor-binding protein; experiment: Dose Response confirmation of uHTS hits for small molecule antagonists of the CRF-binding protein and CRF-R2 receptor complex.; type: functional; settings: read-out: IC50_Mean
[5] = molecular target: T2, Heat shock factor protein 1 (Mus musculus, UniProt P38532); experiment: HSF1 potentiators in luciferase reporter cells, confirmation, cell-based, NIH3T3, luminescence, dose retest (AID 435004); type: functional;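 note: stress induced by proteasome inhibitor MG132 added 30 min after compound; luciferase reporter driven by HSF1 response element in NIH3T3 cells; actives raise luminescence as potentiators of the MG132 stress response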
T2 sequence (P38532 whole entry): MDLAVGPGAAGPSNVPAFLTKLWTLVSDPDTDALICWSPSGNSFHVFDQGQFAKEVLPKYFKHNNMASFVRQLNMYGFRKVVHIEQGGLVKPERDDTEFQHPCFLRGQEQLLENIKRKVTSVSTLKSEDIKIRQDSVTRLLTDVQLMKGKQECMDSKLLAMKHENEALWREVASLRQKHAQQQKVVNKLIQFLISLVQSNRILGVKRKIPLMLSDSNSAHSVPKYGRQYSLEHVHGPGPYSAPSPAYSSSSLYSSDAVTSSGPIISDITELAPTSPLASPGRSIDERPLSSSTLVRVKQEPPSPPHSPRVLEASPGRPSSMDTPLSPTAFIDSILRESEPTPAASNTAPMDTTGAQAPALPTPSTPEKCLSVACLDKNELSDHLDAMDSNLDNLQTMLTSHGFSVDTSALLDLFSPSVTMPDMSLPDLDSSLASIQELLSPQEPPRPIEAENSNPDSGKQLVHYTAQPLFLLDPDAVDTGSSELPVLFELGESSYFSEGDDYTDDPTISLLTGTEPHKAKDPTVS

Cytochrome P450 1A2 = molecular target: T3, Cytochrome P450 1A2 (Homo sapiens, UniProt P05177);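 note: PubChem cytochrome P450 panel assay, CYP1A2 panel member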
T3 sequence (P05177 whole entry): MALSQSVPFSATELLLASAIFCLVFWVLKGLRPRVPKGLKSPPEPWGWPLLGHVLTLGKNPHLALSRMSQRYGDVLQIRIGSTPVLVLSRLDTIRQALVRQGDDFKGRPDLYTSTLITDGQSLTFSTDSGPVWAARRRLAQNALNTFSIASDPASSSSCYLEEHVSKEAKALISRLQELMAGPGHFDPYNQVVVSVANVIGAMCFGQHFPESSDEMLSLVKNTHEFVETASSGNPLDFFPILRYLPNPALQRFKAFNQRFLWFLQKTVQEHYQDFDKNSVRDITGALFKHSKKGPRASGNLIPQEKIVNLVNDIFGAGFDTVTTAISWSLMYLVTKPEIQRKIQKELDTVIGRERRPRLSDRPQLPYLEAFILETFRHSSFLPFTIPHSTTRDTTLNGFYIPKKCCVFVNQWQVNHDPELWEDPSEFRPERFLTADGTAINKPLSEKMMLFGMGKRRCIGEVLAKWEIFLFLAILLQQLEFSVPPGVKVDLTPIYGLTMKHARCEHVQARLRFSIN

Cytochrome P450 2D6 = Cytochrome P450 2D6 (Homo sapiens, UniProt P10635);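 note: CYP2D6 member of a cytochrome P450 panel assay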
Cytochrome P450 2C19 = Cytochrome P450 2C19 (Homo sapiens, UniProt P33261); experiment: Cytochrome panel assay with activity outcomes. Panel member name: p450-cyp2c19 Compounds with AC50 equal or less than 10 uM are considered active; type: functional; settings: read-out: AC50
Cytochrome P450 2C9 = Cytochrome P450 2C9 (Homo sapiens, UniProt P11712)
Cytochrome P450 3A4 = Cytochrome P450 3A4 (Homo sapiens, UniProt P08684);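 note: CYP3A4 tested as one member of a cytochrome P450 panel screen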
[6] = HepG2 cell cytotoxicity, dose response, cytotoxicity control for Shn3 inhibitor project, CellTiter-Glo, cherry-picked (AID 624134); type: functional, cell-based
[7] = Shn3 3'UTR reporter inhibitors, dose response, cell-based, Clone20 osteoblasts, firefly luciferase, cherry-picked (AID 624132); type: functional;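 note: firefly luciferase luminescence from reporter carrying the Shn3 3'UTR in osteoblasts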
[8] = control 3'UTR Renilla luciferase suppression, dose response, counter-screen for Shn3 inhibitor project, cell-based, Clone20-Shn3RL, cherry-picked (AID 624133); type: functional

Chain of Cytochrome P450 2C9 (P11712 whole entry): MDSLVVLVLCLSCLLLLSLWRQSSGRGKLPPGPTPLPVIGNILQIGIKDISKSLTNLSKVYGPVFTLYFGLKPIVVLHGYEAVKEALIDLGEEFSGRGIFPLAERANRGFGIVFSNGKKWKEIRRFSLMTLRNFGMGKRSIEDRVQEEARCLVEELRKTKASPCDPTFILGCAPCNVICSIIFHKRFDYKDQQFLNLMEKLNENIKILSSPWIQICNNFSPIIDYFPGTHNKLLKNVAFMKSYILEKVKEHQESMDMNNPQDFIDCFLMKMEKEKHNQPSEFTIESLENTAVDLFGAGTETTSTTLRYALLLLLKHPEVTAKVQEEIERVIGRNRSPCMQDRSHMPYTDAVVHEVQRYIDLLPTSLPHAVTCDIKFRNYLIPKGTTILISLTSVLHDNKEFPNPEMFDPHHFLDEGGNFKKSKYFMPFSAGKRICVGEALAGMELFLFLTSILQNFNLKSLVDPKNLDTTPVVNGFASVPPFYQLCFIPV
Chain of Cytochrome P450 2D6 (P10635 whole entry): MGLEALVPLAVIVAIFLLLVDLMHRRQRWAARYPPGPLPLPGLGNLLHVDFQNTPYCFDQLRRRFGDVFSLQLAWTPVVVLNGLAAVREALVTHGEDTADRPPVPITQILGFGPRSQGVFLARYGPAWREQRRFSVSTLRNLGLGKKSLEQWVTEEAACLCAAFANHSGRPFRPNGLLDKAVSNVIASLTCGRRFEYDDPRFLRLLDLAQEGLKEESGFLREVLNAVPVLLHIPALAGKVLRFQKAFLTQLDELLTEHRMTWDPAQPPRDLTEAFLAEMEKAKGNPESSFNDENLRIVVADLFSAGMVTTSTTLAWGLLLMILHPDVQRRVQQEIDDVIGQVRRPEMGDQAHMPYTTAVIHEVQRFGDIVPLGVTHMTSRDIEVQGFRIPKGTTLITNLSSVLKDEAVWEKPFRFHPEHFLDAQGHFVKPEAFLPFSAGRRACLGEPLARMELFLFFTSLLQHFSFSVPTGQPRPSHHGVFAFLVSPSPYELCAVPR
Chain of Cytochrome P450 2C19 (P33261 whole entry): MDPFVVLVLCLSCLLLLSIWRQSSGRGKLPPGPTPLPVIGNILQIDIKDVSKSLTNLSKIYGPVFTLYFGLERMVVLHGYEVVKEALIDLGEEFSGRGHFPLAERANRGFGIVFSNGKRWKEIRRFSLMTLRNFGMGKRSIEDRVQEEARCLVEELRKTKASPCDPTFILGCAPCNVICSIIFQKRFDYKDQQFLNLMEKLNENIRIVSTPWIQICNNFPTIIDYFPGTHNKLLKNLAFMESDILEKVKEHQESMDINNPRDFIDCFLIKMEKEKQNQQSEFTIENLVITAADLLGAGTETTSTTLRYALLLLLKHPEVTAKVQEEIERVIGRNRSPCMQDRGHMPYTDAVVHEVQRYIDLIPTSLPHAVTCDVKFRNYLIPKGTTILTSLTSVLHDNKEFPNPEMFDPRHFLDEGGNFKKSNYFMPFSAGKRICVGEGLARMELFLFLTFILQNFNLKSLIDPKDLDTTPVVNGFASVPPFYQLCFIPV
Chain of Cytochrome P450 3A4 (P08684 whole entry): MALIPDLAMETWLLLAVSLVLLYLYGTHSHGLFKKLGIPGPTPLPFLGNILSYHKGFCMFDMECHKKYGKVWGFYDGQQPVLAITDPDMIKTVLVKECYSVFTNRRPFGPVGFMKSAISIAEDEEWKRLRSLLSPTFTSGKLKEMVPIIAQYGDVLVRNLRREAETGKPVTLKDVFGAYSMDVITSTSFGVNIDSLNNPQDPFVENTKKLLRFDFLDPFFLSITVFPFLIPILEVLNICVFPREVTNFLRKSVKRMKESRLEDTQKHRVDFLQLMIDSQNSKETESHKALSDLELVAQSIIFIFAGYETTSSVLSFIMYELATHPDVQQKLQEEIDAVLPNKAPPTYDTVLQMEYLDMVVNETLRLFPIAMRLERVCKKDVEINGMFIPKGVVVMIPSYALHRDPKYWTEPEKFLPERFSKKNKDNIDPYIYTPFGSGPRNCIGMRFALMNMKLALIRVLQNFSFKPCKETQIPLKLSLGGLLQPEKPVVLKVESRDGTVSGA

COc1ccc(C(=O)C(OC(=O)c2ccccc2)c2ccccc2)cc1 (stereo not drawn)
EC50 [1]: 30.5 µM (active) | EC50 (H4): 6.4 µM (active) | EC50 [2]: 10.7 µM (active)

COc1cccc(CN2CC(C(=O)NCc3ccc(Cl)s3)CCC2=O)c1 (stereo not drawn)
EC50 [3]: > 53 µM (inactive) | IC50 [4]: > 47.1 µM (inactive)

COc1cc(NC(=O)c2cc([N+](=O)[O-])ccc2Br)ccc1NC(=O)c1ccco1
EC50 [5]: 9.95 µM (active)

COc1cccc(NS(=O)(=O)c2ccc3ncc(C(=O)NCCN4CCOCC4)c(O)c3c2)c1
AC50 (Cytochrome P450 1A2): 12.6 µM (inconclusive) | AC50 (Cytochrome P450 2D6): 28.2 µM (inconclusive)

COc1ccc(CCn2c(-c3ccccc3)nc3c(c(=O)c4ccccc4n3C)c2=O)cc1
EC50 [1]: 24.2 µM (inconclusive) | EC50 (H4): > 120 µM (not active) | EC50 [2]: > 120 µM (not active)

Brc1ccccc1OCCCCn1cnc2ccccc21
EC50 [1]: 16.9 µM (active) | EC50 (H4): 13 µM (inconclusive) | EC50 [2]: > 120 µM (not active)

Cc1ccc(Nc2ncnc3sc(C)c(C)c23)cc1
EC50 [1]: 19.5 µM (active) | EC50 (H4): 26.3 µM (active) | EC50 [2]: 18.1 µM (active)

Cc1ccccc1Nc1nc(N)nc(COC(=O)c2cccc(S(=O)(=O)N(C)c3ccccc3)c2)n1
EC50 [3]: > 53 µM (inactive) | IC50 [4]: > 47.1 µM (inactive)

COc1ccc(-n2c(=O)cnc3cnc(Oc4cccc(Cl)c4)nc32)cc1
AC50 (Cytochrome P450 2C19): 15.8 µM (inconclusive) | AC50 (Cytochrome P450 2D6): 39.8 µM (inconclusive)

CCOC(=O)O[C@]1(C(=O)COC(=O)CC)CC[C@@H]2[C@@H]3CCC4=CC(=O)C=C[C@@]4(C)[C@H]3[C@H](O)C[C@]21C
AC50 (Cytochrome P450 2C9): 12.6 µM (inconclusive) | AC50 (Cytochrome P450 3A4): 12.6 µM (inconclusive) | AC50 (Cytochrome P450 2D6): 12.6 µM (inconclusive)

CCn1c(=O)n(CC)c2cc(S(=O)(=O)Nc3ccccc3C)c(C)cc21
EC50 [5]: > 260 µM (inactive)

COc1ccc2nc(O)c(CN(CCc3ccccc3)C(C)=O)cc2c1
AC50 (Cytochrome P450 1A2): 14.1 µM (inconclusive) | AC50 (Cytochrome P450 2C9): 14.1 µM (inconclusive) | AC50 (Cytochrome P450 2D6): 14.1 µM (inconclusive)

COc1cc2c(cc1O)C[C@@H]1c3c(cc(O)c(OC)c3-2)CCN1C
AC50 (Cytochrome P450 2D6): 3.16 µM (inconclusive)

FC(F)(F)c1ccccc1-c1cncnc1Nc1ccccc1
AC50 (Cytochrome P450 1A2): 25.1 µM (inconclusive) | AC50 (Cytochrome P450 2D6): 39.8 µM (inconclusive)

O=C(c1cc2nc(-c3ccc(F)cc3)cc(C(F)(F)F)n2n1)N1CCOCC1
EC50 [3]: > 53 µM (inactive) | IC50 [4]: > 47.1 µM (inactive)

Cc1ccc(-c2cc3nc(-c4ccccc4)cc(N)n3n2)cc1
EC50 [1]: 0.812 µM (active) | EC50 (H4): > 120 µM (not active) | EC50 [2]: 0.163 µM (active)

N#Cc1cn(-c2ccccc2)nc1C(=O)c1ccccc1
EC50 [1]: > 120 µM (not active) | EC50 (H4): > 120 µM (not active) | EC50 [2]: > 120 µM (not active)

CCN(CC)C(=O)CSc1ncnc2c1nnn2-c1ccc(OC)cc1
EC50 [3]: > 53 µM (inactive) | IC50 [4]: > 47.1 µM (inactive)

Cc1ccccc1Cn1c(-c2cncs2)nc2ccccc21
EC50 [5]: > 260 µM (inactive)

O=[N+]([O-])c1ccc(S(=O)(=O)Cc2ccccc2)c([N+](=O)[O-])c1
AC50 (Cytochrome P450 1A2): 5.01 µM (inconclusive) | AC50 (Cytochrome P450 2D6): 2.51 µM (inconclusive)

O=S(=O)(c1cccc2nsnc12)N1CCc2ccccc2C1
EC50 [3]: > 53 µM (inactive) | IC50 [4]: > 47.1 µM (inactive)

COc1ccc(CN2CCC(CO)(CCOc3ccccc3)CC2)cc1C
EC50 [3]: > 53 µM (inactive) | IC50 [4]: > 47.1 µM (inactive)

COc1cc(N=C(S)NC(C)(C)C)c(OC)cc1Cl
EC50 [5]: > 260 µM (inactive)

CN(C)c1ccc(-c2cncnc2Nc2ccccc2)cc1
AC50 (Cytochrome P450 2D6): 20 µM (inconclusive)

CCCCn1c(C)c(C(=O)OCC)c2c(CN3CCOCC3)c(O)ccc21
EC50 [5]: > 260 µM (inactive)

CCC(=O)NC(C)c1cc(Cl)c2cccnc2c1O (stereo not drawn)
AC50 [6]: 9.85 µM (active) | AC50 [7]: 5.19 µM (active) | AC50 [8]: 1.62 µM (active)

CC(=O)N(C)c1ccc(NC(S)=Nc2cccc3ccccc23)cc1
EC50 [1]: 29.5 µM (active) | EC50 (H4): 30.7 µM (active) | EC50 [2]: 15.8 µM (active)

Cc1nc(-c2ccc(Cl)cc2)sc1C1(C)CC(c2ccccc2)=NO1 (stereo not drawn)
EC50 [1]: 9.8 µM (active) | EC50 (H4): 31.3 µM (active) | EC50 [2]: 7.51 µM (active)

CCC(=O)Nc1c(S(=O)(=O)c2ccccc2)c2nc3ccccc3nc2n1C(C)c1ccccc1 (stereo not drawn)
EC50 [5]: > 260 µM (inactive)

CN(NC(=O)Nc1ccccc1)c1cnn(C)c(=O)c1Cl
EC50 [3]: > 53 µM (inactive) | IC50 [4]: > 47.1 µM (inactive)

O=S(=O)(c1ccccc1C(F)(F)F)N1CCN(c2ncnc3sccc23)CC1
AC50 [6]: 8.89 µM (active) | AC50 [7]: 3.44 µM (active) | AC50 [8]: 9.4 µM (active)

Cc1ccc(NC(=O)c2oc3ccccc3c2COC(C)C)cc1S(=O)(=O)N1CCOCC1
AC50 [6]: > 70 µM (inactive) | AC50 [7]: 14.4 µM (active)

O=C(CCNS(=O)(=O)c1ccc2c(c1)CCC(=O)N2)NCc1ccc2c(c1)OCO2
AC50 (Cytochrome P450 2C9): 39.8 µM (inconclusive) | AC50 (Cytochrome P450 2D6): 22.4 µM (inconclusive)

CCOC(=O)C1=NN(c2ccccc2)C2=NC(C)=C(C(=O)OC)C(c3cccs3)N12 (stereo not drawn)
EC50 [3]: > 53 µM (inactive) | IC50 [4]: > 47.1 µM (inactive)

CCN(CC)Cc1c(C)nc2ccc(NC(C)=O)cc2c1O
EC50 [3]: > 53 µM (inactive) | IC50 [4]: > 47.1 µM (inactive)

CC(=O)c1cc(C#N)c(Oc2ccc(Cl)cc2Cl)nc1C
EC50 [3]: > 53 µM (inactive) | IC50 [4]: > 47.1 µM (inactive)

O=C(C[C@H]1C[C@@H]2c3cc(NS(=O)(=O)c4ccccc4)ccc3O[C@@H]2[C@H](CO)O1)N1CCOCC1
EC50 [3]: > 53 µM (inactive) | IC50 [4]: > 47.1 µM (inactive)

Cc1nn(C)cc1/C=N\NC(=O)c1ccc2c(c1)c(C)c(C)n2Cc1ccccc1
EC50 [5]: 67.7 µM (active)

O=C(N/N=C1\CC(c2ccccc2)Oc2ccccc21)c1ccc(O)cc1 (stereo not drawn)
EC50 [5]: > 260 µM (inactive)

COc1ccc(CNc2ncnc3ccc(-c4ccc(C(=O)N(C)C)cc4)cc23)c(OC)c1
AC50 (Cytochrome P450 1A2): 39.8 µM (inconclusive) | AC50 (Cytochrome P450 2D6): 20 µM (inconclusive)

O=C1NCC2(CCN(CCc3ccccc3)CC2)O1 [FENSPIRIDE]
AC50 (Cytochrome P450 2D6): 12.6 µM (inconclusive) and 39.8 µM (inconclusive)

Reference: ChEMBL document CHEMBL1201862, “PubChem BioAssay data set” (2004)
